Laboratory results as given in ChEMBL document CHEMBL4673372, “1,2,3-triazole-thiazole hybrids: Synthesis, in vitro antimicrobial activity and antibiofilm studies” (Bioorg Med Chem Lett, 2021).

What follows are compounds tested on Candida albicans (assay: Inhibition of biofilm formation in Candida albicans MTCC 3017 incubated for 24 hrs by crystal violet staining based microtiter plate method).
Format: functional, organism-based

Q: Which IC50 does the source give for CCOc1cc(Br)cc2cc(-c3csc(N/N=C/c4ccc(OCc5cn(-c6ccc(OC)cc6)nn5)cc4)n3)c(=O)oc12 here?
A: Not Active

These compounds were tested on Pseudomonas aeruginosa (assay: Inhibition of biofilm formation in Pseudomonas aeruginosa MTCC 2453 incubated for 24 hrs by crystal violet staining based microtiter plate method).
Format: functional, organism-based

Q: For CCOc1cc(Br)cc2cc(-c3csc(N/N=C/c4ccc(OCc5cn(-c6ccc(OC)cc6)nn5)cc4)n3)c(=O)oc12, which IC50 is on record?
A: Not Active

The compounds below were run on Escherichia coli (assay: Inhibition of biofilm formation in Escherichia coli MTCC 739 incubated for 24 hrs by crystal violet staining based microtiter plate method).
Format: functional, organism-based

Q: With CCOc1cc(Br)cc2cc(-c3csc(N/N=C/c4ccc(OCc5cn(-c6ccc(OC)cc6)nn5)cc4)n3)c(=O)oc12 as the compound, how does the IC50 read?
A: Not Active

These compounds were tested on Raoultella planticola (assay: Inhibition of biofilm formation in Klebsiella planticola MTCC 530 incubated for 24 hrs by crystal violet staining based microtiter plate method).
Format: functional, organism-based

Q: How did the IC50 turn out when CCOc1cc(Br)cc2cc(-c3csc(N/N=C/c4ccc(OCc5cn(-c6ccc(OC)cc6)nn5)cc4)n3)c(=O)oc12 was run?
A: Not Active

Each compound was assayed on Micrococcus luteus (assay: Inhibition of biofilm formation in Micrococcus luteus MTCC 2470 incubated for 24 hrs by crystal violet staining based microtiter plate method).
Format: functional, organism-based

Q: For CCOc1cc(Br)cc2cc(-c3csc(N/N=C/c4ccc(OCc5cn(-c6ccc(OC)cc6)nn5)cc4)n3)c(=O)oc12, which IC50 is on record?
A: Not Active

These compounds were tested on Bacillus subtilis (assay: Inhibition of biofilm formation in Bacillus subtilis MTCC 121 incubated for 24 hrs by crystal violet staining based microtiter plate method).
Format: functional, organism-based

Q: With CCOc1cc(Br)cc2cc(-c3csc(N/N=C/c4ccc(OCc5cn(-c6ccc(OC)cc6)nn5)cc4)n3)c(=O)oc12 as the compound, how does the IC50 read?
A: Not Active

The compounds below were run on Staphylococcus aureus (assay: Inhibition of biofilm formation in Staphylococcus aureus MLS16 MTCC 2940 incubated for 24 hrs by crystal violet staining based microtiter plate method).
Format: functional, organism-based

Q: How did the IC50 turn out when CCOc1cc(Br)cc2cc(-c3csc(N/N=C/c4ccc(OCc5cn(-c6ccc(OC)cc6)nn5)cc4)n3)c(=O)oc12 was run?
A: Not Active

What follows are compounds tested on Staphylococcus aureus (assay: Inhibition of biofilm formation in Staphylococcus aureus […] incubated for 24 hrs by crystal violet staining based microtiter plate method).
Format: functional, organism-based

Q: Which IC50 does the source give for CCOc1cc(Br)cc2cc(-c3csc(N/N=C/c4ccc(OCc5cn(-c6ccc(OC)cc6)nn5)cc4)n3)c(=O)oc12 here?
A: Not Active

Each compound was assayed on Pseudomonas aeruginosa (assay: Antibacterial activity against Pseudomonas aeruginosa MTCC 2453 assessed as inhibition of bacterial growth by microtiter broth dilution method).
Format: functional

Q: Which MIC does the source give for CCOc1cc(Br)cc2cc(-c3csc(N/N=C/c4ccc(OCc5cn(-c6ccc(OC)cc6)nn5)cc4)n3)c(=O)oc12 here?
A: > 186 µM

These compounds were tested on Escherichia coli (assay: Antibacterial activity against Escherichia coli MTCC 739 assessed as inhibition of bacterial growth by microtiter broth dilution method).
Format: functional

Q: With CCOc1cc(Br)cc2cc(-c3csc(N/N=C/c4ccc(OCc5cn(-c6ccc(OC)cc6)nn5)cc4)n3)c(=O)oc12 as the compound, how does the MIC read?
A: > 186 µM

These compounds were tested on Raoultella planticola (assay: Antibacterial activity against Klebsiella planticola MTCC 530 assessed as inhibition of bacterial growth by microtiter broth dilution method).
Format: functional

Q: Which MIC does the source give for CCOc1cc(Br)cc2cc(-c3csc(N/N=C/c4ccc(OCc5cn(-c6ccc(OC)cc6)nn5)cc4)n3)c(=O)oc12 here?
A: > 186 µM

What follows are compounds tested on Micrococcus luteus (assay: Antibacterial activity against Micrococcus luteus MTCC 2470 assessed as inhibition of bacterial growth by microtiter broth dilution method).
Format: functional

Q: Which MIC does the source give for CCOc1cc(Br)cc2cc(-c3csc(N/N=C/c4ccc(OCc5cn(-c6ccc(OC)cc6)nn5)cc4)n3)c(=O)oc12 here?
A: > 186 µM

Each compound was assayed on Bacillus subtilis (assay: Antibacterial activity against Bacillus subtilis MTCC 121 assessed as inhibition of bacterial growth by microtiter broth dilution method).
Format: functional

Q: With CCOc1cc(Br)cc2cc(-c3csc(N/N=C/c4ccc(OCc5cn(-c6ccc(OC)cc6)nn5)cc4)n3)c(=O)oc12 as the compound, how does the MIC read?
A: > 186 µM

Each compound was assayed on Staphylococcus aureus (assay: Antibacterial activity against Staphylococcus aureus MLS16 MTCC 2940 assessed as inhibition of bacterial growth by microtiter broth dilution method).
Format: functional

Q: For CCOc1cc(Br)cc2cc(-c3csc(N/N=C/c4ccc(OCc5cn(-c6ccc(OC)cc6)nn5)cc4)n3)c(=O)oc12, which MIC is on record?
A: > 186 µM

What follows are compounds tested on Staphylococcus aureus (assay: Antibacterial activity against Staphylococcus aureus MTCC 96 assessed as inhibition of bacterial growth by microtiter broth dilution method).
Format: functional

Q: How did the MIC turn out when CCOc1cc(Br)cc2cc(-c3csc(N/N=C/c4ccc(OCc5cn(-c6ccc(OC)cc6)nn5)cc4)n3)c(=O)oc12 was run?
A: > 186 µM
